Common to all, as to assay type: biochemical
The target of assay [1] is T1, FBXL10 (KDM2B) (Homo sapiens, UniProt Q8NHM5).
T1 construct: 1-650; purchased BPS, Bioscience, US; host or cells: Bac (baculovirus)
T1 sequence (Q8NHM5 1-650): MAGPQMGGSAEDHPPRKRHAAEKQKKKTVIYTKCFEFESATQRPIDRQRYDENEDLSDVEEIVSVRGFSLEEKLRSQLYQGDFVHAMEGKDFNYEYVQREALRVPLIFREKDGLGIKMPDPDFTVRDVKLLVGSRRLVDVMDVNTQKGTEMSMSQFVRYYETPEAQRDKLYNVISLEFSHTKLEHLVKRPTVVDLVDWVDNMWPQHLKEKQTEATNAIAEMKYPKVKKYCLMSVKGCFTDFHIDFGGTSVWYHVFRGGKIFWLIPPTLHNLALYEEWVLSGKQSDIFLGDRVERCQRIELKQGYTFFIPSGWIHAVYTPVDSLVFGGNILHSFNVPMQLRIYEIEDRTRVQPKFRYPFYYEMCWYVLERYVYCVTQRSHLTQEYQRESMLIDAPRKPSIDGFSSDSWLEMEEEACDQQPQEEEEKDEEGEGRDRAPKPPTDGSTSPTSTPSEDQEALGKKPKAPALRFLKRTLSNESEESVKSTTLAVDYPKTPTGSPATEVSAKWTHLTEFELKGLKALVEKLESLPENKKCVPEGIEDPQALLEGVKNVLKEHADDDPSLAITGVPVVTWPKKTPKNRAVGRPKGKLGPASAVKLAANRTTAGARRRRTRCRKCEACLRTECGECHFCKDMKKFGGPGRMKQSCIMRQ
The assay can be described thus: Histone lysine demethylase AlphaLISA assay, FBXL10. Conditions: substrate BH3K36M2. An outline of the steps:
(§1)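 AlphaLISA read-out, IC50. Enzyme 10 min preinc → + cpd (3% DMSO soln) 10 min → + substrate, RT → acceptor beads 60 min dark RT → streptavidin donor beads, dark RT → read.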
(In Alpha technology, singlet oxygen from a donor bead excites a nearby acceptor bead.)

Assay [2] has as its target T2, GASC1 (KDM4C, JMJD2C) (Homo sapiens, UniProt Q9H3R0).
T2 construct: 1-349; host or cells: E. coli
T2 sequence (Q9H3R0 1-349): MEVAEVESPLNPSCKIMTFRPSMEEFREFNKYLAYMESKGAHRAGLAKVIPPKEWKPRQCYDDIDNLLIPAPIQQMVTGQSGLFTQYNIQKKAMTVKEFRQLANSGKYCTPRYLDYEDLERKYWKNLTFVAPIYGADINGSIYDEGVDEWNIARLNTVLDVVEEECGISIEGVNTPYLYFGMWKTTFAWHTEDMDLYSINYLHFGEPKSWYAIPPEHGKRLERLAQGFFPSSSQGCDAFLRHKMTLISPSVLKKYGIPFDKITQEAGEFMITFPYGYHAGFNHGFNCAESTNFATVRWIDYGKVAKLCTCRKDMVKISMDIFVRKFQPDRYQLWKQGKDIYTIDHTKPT
Put plainly: Histone lysine demethylase AlphaLISA assay, GASC1. Conditions: substrate BK9M3. An outline of the steps: as §1

The target of assay [3] is T3, UTX (KDM6A) (Homo sapiens, UniProt O15550).
T3 construct: 919-1401; host or cells: E. coli
T3 sequence (O15550 919-1401): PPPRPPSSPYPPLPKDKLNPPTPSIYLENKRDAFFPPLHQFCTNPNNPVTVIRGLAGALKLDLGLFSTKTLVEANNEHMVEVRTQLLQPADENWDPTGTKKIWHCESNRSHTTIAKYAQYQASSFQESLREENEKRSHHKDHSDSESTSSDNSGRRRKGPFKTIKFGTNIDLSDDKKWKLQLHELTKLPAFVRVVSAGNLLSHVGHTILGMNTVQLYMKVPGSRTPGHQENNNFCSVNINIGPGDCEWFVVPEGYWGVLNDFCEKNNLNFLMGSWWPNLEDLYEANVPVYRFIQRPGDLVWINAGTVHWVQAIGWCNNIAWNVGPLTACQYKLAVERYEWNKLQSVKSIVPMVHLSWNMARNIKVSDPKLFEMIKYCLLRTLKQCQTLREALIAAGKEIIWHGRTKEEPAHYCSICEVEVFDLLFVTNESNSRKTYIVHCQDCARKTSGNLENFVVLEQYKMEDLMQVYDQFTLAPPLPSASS
The assay can be described thus: Histone lysine demethylase AlphaLISA assay, UTX. Conditions: substrate BK27M3. An outline of the steps: as §1

The target in assay [4] is T4, JARID1C (KDM5C) (Homo sapiens, UniProt P41229).
T4 construct: 2-1560; purchased BPS; host or cells: Bac (baculovirus)
T4 sequence (P41229 2-1560): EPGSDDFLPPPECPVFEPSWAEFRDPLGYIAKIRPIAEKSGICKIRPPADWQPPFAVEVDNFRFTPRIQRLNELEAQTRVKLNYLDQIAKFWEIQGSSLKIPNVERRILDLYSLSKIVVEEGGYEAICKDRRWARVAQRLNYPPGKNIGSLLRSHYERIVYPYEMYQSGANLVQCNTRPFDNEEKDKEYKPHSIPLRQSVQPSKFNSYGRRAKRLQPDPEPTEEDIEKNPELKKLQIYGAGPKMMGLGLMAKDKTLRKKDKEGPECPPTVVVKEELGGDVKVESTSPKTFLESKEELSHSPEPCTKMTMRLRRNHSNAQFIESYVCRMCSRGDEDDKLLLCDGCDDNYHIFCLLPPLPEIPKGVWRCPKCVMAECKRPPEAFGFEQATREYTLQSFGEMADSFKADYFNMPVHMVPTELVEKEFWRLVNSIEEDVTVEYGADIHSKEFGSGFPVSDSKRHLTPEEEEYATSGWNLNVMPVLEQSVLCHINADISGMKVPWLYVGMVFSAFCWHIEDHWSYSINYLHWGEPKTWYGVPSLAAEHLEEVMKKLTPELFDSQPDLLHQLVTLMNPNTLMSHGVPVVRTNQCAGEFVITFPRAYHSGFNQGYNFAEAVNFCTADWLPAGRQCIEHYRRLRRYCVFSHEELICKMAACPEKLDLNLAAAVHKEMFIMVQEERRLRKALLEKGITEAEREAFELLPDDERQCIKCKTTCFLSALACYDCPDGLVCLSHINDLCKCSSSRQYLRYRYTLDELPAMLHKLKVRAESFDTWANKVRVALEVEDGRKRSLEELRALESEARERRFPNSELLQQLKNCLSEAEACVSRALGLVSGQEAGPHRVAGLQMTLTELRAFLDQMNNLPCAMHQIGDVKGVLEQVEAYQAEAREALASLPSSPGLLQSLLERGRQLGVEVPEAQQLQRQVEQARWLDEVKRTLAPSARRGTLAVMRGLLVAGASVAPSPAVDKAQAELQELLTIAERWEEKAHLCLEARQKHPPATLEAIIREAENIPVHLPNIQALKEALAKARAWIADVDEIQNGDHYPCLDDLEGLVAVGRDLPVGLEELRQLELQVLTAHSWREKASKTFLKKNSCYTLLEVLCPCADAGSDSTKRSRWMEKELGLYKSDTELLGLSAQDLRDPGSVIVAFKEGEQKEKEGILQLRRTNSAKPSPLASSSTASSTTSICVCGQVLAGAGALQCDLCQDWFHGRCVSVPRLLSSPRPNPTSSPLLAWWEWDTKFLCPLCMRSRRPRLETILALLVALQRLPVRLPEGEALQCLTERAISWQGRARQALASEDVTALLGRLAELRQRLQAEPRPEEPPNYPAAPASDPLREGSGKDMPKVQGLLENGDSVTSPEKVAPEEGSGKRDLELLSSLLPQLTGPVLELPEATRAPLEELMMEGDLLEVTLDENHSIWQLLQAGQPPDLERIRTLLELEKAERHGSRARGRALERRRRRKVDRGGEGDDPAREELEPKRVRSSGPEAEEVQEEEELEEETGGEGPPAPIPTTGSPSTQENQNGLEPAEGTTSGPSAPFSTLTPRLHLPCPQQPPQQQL
Put plainly: Histone lysine demethylase AlphaLISA assay, JARID1C. Conditions: substrate H3K4M3B. The protocol: Example 2: Histone Lysine Demethylase AlphaLISA Assays for IC50 Value Determination
Assays are performed analogously to the protocol described by Perkin Elmer (Roy et al. Perkin Elmer Technical Note: AlphaLISA #12, April 2011).
Enzymes are dissolved in enzyme buffer and incubated for 10 min before 5 μL is added to 5 μL 3% DMSO solutions of compounds in enzyme buffer. Incubated for another 10 minutes, before 5 μL substrate solution is added and the reaction mixture is incubated at room temperature for the given period. 10 μL acceptor beads, suspended at given dilutions in Epigenetic Buffer (Perkin Elmer AL008) from stock, are added and the suspension is incubated 60 minutes in the dark at room temperature, before 10 μL suspension (at the given dilutions in Epigenetic Buffer) of streptavidin donor beads (Perkin Elmer 6760002) in Epigenetic Buffer is added. After incubation at room temperature in the dark the plates are read. Reaction conditions are seen in Table 2b.

The target of assay [5] is T5, PLU1 (KDM5B) (Homo sapiens, UniProt Q9UGL1).
T5 construct: 1-809; host or cells: E. coli
T5 sequence (Q9UGL1 1-809): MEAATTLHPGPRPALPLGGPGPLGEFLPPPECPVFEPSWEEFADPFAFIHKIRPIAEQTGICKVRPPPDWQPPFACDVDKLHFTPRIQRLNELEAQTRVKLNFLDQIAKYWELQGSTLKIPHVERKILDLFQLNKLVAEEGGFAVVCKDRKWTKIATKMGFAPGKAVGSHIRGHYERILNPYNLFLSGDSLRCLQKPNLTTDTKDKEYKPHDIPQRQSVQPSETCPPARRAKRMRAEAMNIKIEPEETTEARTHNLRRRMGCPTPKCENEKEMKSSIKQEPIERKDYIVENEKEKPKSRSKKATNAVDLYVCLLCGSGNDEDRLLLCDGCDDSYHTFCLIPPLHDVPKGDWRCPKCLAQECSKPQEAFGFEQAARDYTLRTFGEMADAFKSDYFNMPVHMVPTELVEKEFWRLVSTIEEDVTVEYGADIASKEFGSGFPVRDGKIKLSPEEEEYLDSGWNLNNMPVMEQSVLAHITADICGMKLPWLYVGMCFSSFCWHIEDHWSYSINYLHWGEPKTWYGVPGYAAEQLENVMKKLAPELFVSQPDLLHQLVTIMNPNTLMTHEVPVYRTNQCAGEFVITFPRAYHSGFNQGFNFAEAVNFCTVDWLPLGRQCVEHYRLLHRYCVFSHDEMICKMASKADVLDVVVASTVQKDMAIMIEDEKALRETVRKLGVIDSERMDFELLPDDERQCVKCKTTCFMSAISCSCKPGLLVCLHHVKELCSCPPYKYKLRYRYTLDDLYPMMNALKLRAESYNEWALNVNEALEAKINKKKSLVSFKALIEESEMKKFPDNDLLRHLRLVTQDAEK
Put plainly: Histone lysine demethylase AlphaLISA assay, PLU1. Conditions: substrate H3K4M3B. An outline of the steps: as §1

As usually defined, the IC50 is the concentration that gives 50% inhibition. High values mean a need for much substance, low ones inhibition by little substance.

Consider “2-({[(1R)-2-hydroxy-1-{methyl[3-(1-methyl-1H-imidazol-2-yl)propyl]carbamoyl}ethyl]amino}methyl)pyridine-4-carboxylic acid [#37]”, for which the IC50 in assay [1] is not below 1000 nM; in assay [2], less than 100 nM; in assay [3] it was not below 1000 nM; in assay [4], 100 to 1000 nM.
As for `O=C(O)c1ccnc(CNCC(=O)N2CCCC2)c1` [#13, 2-({[2-oxo-2-(pyrrolidin-1-yl)ethyl]amino}methyl)pyridine-4-carboxylic acid], the IC50 in assay [1] is less than 100 nM; in assay [2] it was less than 100 nM; in assay [3], not below 1000 nM; in assay [4], less than 100 nM; in assay [5], less than 100 nM.
For the molecule `CCCCN(C)C(=O)CNCc1cc(C(=O)O)ccn1` [#14, 2-[({[butyl(methyl)carbamoyl]methyl}amino)methyl]pyridine-4-carboxylic acid], the IC50 in assay [1] is less than 100 nM; in assay [2], less than 100 nM; in assay [3] it was not below 1000 nM; in assay [4], less than 100 nM; in assay [5], less than 100 nM.
In the case of `COc1ccccc1CN1CCC(NC(=O)CNCc2cc(C(=O)O)ccn2)CC1` [#29, 2-({[({1-[(2-methoxyphenyl)methyl]piperidin-4-yl}carbamoyl)methyl]amino}methyl)pyridine-4-carboxylic acid], the IC50 in assay [1], in assay [2], in assay [4] and in assay [5] was less than 100 nM each time.
Regarding `CCCCN1CCCC1CCNCc1cc(C(=O)O)ccn1` (centres unmarked) [#34, 2-({[2-(1-butylpyrrolidin-2-yl)ethyl]amino}methyl)pyridine-4-carboxylic acid], the IC50 in assay [2] was less than 100 nM; in assay [3] it was not below 1000 nM; in assay [4] it was less than 100 nM; in assay [5], less than 100 nM.
Regarding `CC(C)=CCCC(C)CCN1CCC(NC(=O)CNCc2cc(C(=O)O)ccn2)C1` (centres unmarked) [#35, 2-{[({[1-(3,7-dimethyloct-6-en-1-yl)pyrrolidin-3-yl]carbamoyl}methyl)amino]methyl}pyridine-4-carboxylic acid], the IC50 in assay [1] is 100 to 1000 nM; in assay [2], less than 100 nM; in assay [3], not below 1000 nM; in assay [4] it was less than 100 nM; in assay [5] it was less than 100 nM.
As to `CCN(CCN(C)C)C(=O)CNCc1cc(C(=O)O)ccn1` [#49, 2-{[({[2-(dimethylamino)ethyl](ethyl)carbamoyl}methyl)amino]methyl}pyridine-4-carboxylic acid], the IC50 in assay [1] is 100 to 1000 nM; in assay [2] it was less than 100 nM; in assay [3], not below 1000 nM; in assay [4], less than 100 nM; in assay [5], less than 100 nM.

For the origin of these results see US10221139B2, “Inhibitors of histone demethylases” (Gilead Sciences, Inc., priority 2012, dated 2019).
